pIC50: −log10 of the molar value. Like-named read-outs stand apart in the source and are kept apart here.
Molecular target: GCN2 (Homo sapiens, UniProt Q9P2K8)
Test: GCN2 enzymatic endpoint assay: phosphorylation of GFP-eIF2α measured by TR-FRET (Lanthascreen)
Type: biochemical
Method in brief: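 Kinase activity is measured as phosphorylation of GFP-labelled eIF2α (80 nM) with ATP at 2 μM. Incubation runs 90 minutes at room temperature before EDTA quench and terbium-antibody detection.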

[1] = tested as described in Example 77, compound and/or hydrochloride, dihydrochloride or trifluoroacetic acid salt, read-out: IC 50 Activity
[2] = GCN2 biochemical IC50, 4 nM GCN2, 2 μM ATP, 80 nM GFP-eIF2α, 90 min RT, read-out: GCN2 activity

GCN2, sequence (Q9P2K8 whole entry): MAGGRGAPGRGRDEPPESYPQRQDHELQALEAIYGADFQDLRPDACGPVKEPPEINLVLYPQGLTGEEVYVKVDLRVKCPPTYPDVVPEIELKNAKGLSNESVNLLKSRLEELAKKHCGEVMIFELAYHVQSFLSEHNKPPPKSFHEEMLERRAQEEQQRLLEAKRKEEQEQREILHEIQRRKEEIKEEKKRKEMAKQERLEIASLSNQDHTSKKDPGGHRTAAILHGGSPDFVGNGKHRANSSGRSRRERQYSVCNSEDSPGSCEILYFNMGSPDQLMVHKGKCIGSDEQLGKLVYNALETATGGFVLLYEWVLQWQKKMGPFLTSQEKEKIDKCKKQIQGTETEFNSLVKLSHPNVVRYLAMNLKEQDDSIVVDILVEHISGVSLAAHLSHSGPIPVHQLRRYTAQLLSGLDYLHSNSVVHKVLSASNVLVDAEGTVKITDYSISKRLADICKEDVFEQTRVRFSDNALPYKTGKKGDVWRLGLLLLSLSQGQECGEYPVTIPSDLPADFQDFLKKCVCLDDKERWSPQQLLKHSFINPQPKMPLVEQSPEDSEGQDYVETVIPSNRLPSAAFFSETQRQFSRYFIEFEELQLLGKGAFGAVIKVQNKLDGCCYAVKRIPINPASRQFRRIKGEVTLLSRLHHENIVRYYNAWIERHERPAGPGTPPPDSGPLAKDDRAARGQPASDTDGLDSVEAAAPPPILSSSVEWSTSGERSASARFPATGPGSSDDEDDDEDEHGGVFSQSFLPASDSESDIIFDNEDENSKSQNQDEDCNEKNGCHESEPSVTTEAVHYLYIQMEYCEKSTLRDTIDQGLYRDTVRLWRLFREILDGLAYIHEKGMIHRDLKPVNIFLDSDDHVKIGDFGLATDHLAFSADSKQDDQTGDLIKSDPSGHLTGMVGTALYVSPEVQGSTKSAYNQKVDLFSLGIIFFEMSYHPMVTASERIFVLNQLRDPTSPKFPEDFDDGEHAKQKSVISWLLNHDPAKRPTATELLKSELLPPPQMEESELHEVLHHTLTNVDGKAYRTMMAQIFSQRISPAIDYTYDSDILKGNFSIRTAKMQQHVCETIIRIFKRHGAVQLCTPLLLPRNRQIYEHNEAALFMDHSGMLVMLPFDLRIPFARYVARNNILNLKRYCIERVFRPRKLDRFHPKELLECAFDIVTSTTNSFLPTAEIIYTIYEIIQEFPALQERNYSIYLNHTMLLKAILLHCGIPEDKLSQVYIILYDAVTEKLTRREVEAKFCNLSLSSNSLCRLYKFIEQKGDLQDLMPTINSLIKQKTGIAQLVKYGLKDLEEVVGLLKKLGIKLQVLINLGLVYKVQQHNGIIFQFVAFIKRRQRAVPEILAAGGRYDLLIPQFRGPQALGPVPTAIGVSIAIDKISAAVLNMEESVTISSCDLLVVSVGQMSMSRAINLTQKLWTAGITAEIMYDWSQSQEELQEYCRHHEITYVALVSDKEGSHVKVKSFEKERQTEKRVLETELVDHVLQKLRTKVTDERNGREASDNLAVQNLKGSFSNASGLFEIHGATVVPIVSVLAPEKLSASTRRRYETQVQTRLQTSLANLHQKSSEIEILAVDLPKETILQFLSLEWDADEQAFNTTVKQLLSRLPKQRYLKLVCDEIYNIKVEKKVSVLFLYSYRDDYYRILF

CNC(=O)[C@]1(C)CC[C@@H](Nc2ncc3c(Br)nn(-c4ccc(-c5nnc(C)o5)c(CCO)c4)c3n2)C1 [(1R,3R)-3-[[3-bromo-1-[3-(2-hydroxyethyl)-4-(5-methyl-1,3,4-oxadiazol-2-yl)phenyl]pyrazolo[3,4-d]pyrimidin-6-yl]amino]-N,1-dimethyl-cyclopentanecarboxamide]
pIC50 [1]: 6.70 to 7.60

Cc1nnc(-c2ccc(-n3nc(Br)c4cnc(N[C@@H]5CC[C@@H](C(=O)N6CCNC(=O)C6)C5)nc43)cc2)o1 [Example 22, 4-((1R,3R)-3-((3-bromo-1-(4-(5-methyl-1,3,4-oxadiazol-2-yl)phenyl)-1H-pyrazolo[3,4-d]pyrimidin-6-yl)amino)cyclopentane-1-carbonyl)piperazin-2-one]
pIC50 [2]: 6.70 to 7.60

CNC(=O)[C@]1(C)CC[C@@H](Nc2ncc3c(Br)nn(-c4ccc5c(c4)n(C)c(=O)c(=O)n5C)c3n2)C1 [(1R,3R)-3-[[3-bromo-1-(1,4-dimethyl-2,3-dioxo-quinoxalin-6-yl)pyrazolo [3,4-d]pyrimidin-6-yl]amino]-N,1-dimethyl-cyclopentanecarboxamide]
pIC50 [1]: 6.70 to 7.60

COC1CC(Nc2ncc3c(Br)nn(-c4cc(F)c5ncccc5c4)c3n2)C1 (stereo not shown) [3-bromo-1-(8-fluoro-6-quinolyl)-N-(3-methoxycyclobutyl)pyrazolo[3,4-d]pyrimidin-6-amine]
pIC50 [1]: 6.70 to 7.60

CNC(=O)[C@]1(C)CC[C@@H](Nc2ncc3c(Br)nn(-c4ccc5ncn(CCCN)c(=O)c5c4)c3n2)C1
pIC50 [1]: 6.70 to 7.60

CNC(=O)[C@]1(C)CC[C@@H](Nc2ncc3c(Br)nn(-c4ccc5c(c4)CN(S(C)(=O)=O)CC5)c3n2)C1 [(1R,3R)-3-[[3-bromo-1-(2-methylsulfonyl-3,4-dihydro-1H-isoquinolin-7-yl)pyrazolo [3,4-d]pyrimidin-6-yl]amino]-N,1-dimethyl-cyclopentanecarboxamide]
pIC50 [1]: 6.70 to 7.60

CNC(=O)[C@]1(C)CC[C@@H](Nc2ncc3c(Br)nn(-c4ccc(-c5nnc(C)s5)c(CCNCC(F)(F)F)c4)c3n2)C1 [(1R,3R)-3-[[3-bromo-1-[4-(5-methyl-1,3,4-thiadiazol-2-yl)-3-[2-(2,2,2-trifluoroethylamino)ethyl]phenyl]pyrazolo[3,4-d]pyrimidin-6-yl]amino]-N,1-dimethyl-cyclopentanecarboxamide]
pIC50 [1]: 6.70 to 7.60

CN(CC(C)(C)O)C(=O)[C@]1(C)CC[C@@H](Nc2ncc3c(Br)nn(-c4cc(F)c5ncccc5c4)c3n2)C1 [(1R,3R)-3-[[3-bromo-1-(8-fluoro-6-quinolyl)pyrazolo[3,4-d]pyrimidin-6-yl]amino]-N-(2-hydroxy-2-methyl-propyl)-N,1-dimethyl-cyclopentanecarboxamide]
pIC50 [1]: > 7.60

N#Cc1cc(-n2nc(Br)c3cnc(N[C@@H]4CC[C@@H](C(=O)NC[C@@H]5COCCN5)C4)nc32)cc2cccnc12 [(1R,3R)-3-((3-bromo-1-(8-cyanoquinolin-6-yl)-1H-pyrazolo[3,4-d]pyrimidin-6-yl)amino)-N-(((R)-morpholin-3-yl)methyl)cyclopentane-1-carboxamide]
pIC50 [1]: > 7.60

CN(CC(N)=O)C(=O)[C@@H]1CC[C@@H](Nc2ncc3c(Br)nn(-c4cc(F)c5ncccc5c4)c3n2)C1 [(1R,3R)-N-(2-amino-2-oxoethyl)-3-((3-bromo-1-(8-fluoroquinolin-6-yl)-1H-pyrazolo[3,4-d]pyrimidin-6-yl)amino)-N-methylcyclopentane-1-carboxamide]
pIC50 [1]: 6.70 to 7.60

CCCCNC(=O)[C@@H]1CC[C@@H](Nc2ncc3c(Br)nn(-c4cc(C#N)c5ncccc5c4)c3n2)C1 [(1R,3R)-3-((3-bromo-1-(8-cyanoquinolin-6-yl)-1H-pyrazolo[3,4-d]pyrimidin-6-yl)amino)-N-butylcyclopentane-1-carboxamide]
pIC50 [1]: 6.30 to 6.70

O=C(N[C@@H]1CCOC1)[C@@H]1CC[C@@H](Nc2ncc3c(Br)nn(-c4cc(F)c5ncccc5c4)c3n2)C1 [(1R,3R)-3-((3-bromo-1-(8-fluoroquinolin-6-yl)-1H-pyrazolo[3,4-d]pyrimidin-6-yl)amino)-N-((R)-tetrahydrofuran-3-yl)cyclopentane-1-carboxamide]
pIC50 [1]: > 7.60

CNC(=O)[C@]1(C)CC[C@@H](Nc2ncc3c(Br)nn(-c4cc(C#N)cc(OCCO)c4)c3n2)C1 [(1R,3R)-3-[[3-bromo-1-[3-cyano-5-(2-hydroxyethoxy)phenyl]pyrazolo[3,4-d]pyrimidin-6-yl]amino]-N,1-dimethyl-cyclopentanecarboxamide]
pIC50 [1]: 6.70 to 7.60

CNC(=O)[C@]1(C)CC[C@@H](Nc2ncc3c(Br)nn(-c4cc(C#N)cc(CC#N)c4)c3n2)C1
pIC50 [1]: 6.70 to 7.60

COCCNC(=O)[C@@]1(C)CC[C@@H](Nc2ncc3c(Br)nn(-c4ccc5ncccc5c4)c3n2)C1 [(1S,3R)-3-((3-bromo-1-(quinolin-6-yl)-1H-pyrazolo[3,4-d]pyrimidin-6-yl)amino)-N-(2-methoxyethyl)-1-methylcyclopentane-1-carboxamide]
pIC50 [1]: 6.00 to 6.30

COCCNC(=O)[C@]1(C(C)C)CC[C@@H](Nc2ncc3c(Br)nn(-c4ccc(-c5nnc(C)s5)c(CCC#N)c4)c3n2)C1 [(1R,3R)-3-[[3-bromo-1-[3-(2-cyanoethyl)-4-(5-methyl-1,3,4-thiadiazol-2-yl)phenyl]pyrazolo[3,4-d]pyrimidin-6-yl]amino]-1-isopropyl-N-(2-methoxyethyl)cyclopentane-carboxamide]
pIC50 [1]: 6.70 to 7.60

Brc1nn(-c2ccc3ncccc3c2)c2nc(N[C@@H]3CC[C@@H](c4ncc[nH]4)C3)ncc12 [Example 25, N-((1R,3R)-3-(1H-imidazol-2-yl)cyclopentyl)-3-bromo-1-(quinolin-6-yl)-1H-pyrazolo[3,4-d]pyrimidin-6-amine]
pIC50 [2]: 6.70 to 7.60

CNC(=O)C1(CC(F)(F)F)CC[C@@H](Nc2ncc3c(Br)nn(-c4ccc(-c5nnc(C)s5)c(CCC#N)c4)c3n2)C1 (stereo partly shown)
pIC50 [1]: 6.70 to 7.60

CNC(=O)[C@]1(C)CCC(Nc2ncc3c(Br)nn(-c4ccc(C(N)=O)c(Cl)c4)c3n2)C1 (stereo partly drawn) [4-[3-bromo-6-[[(3R)-3-methyl-3-(methylcarbamoyl)cyclopentyl]amino]pyrazolo[3,4-d]pyrimidin-1-yl]-2-chloro-benzamide]
pIC50 [1]: 6.70 to 7.60

CP(C)(=O)[C@@H]1CC[C@@H](Nc2ncc3c(Br)nn(-c4cc(C#N)cc(OCC5(F)CNC5)c4)c3n2)C1 [3-[3-bromo-6-[[(1R,3R)-3-dimethylphosphorylcyclopentyl]amino]pyrazolo[3,4-d]pyrimidin-1-yl]-5-[(3-fluoroazetidin-3-yl)methoxy]benzonitrile]
pIC50 [1]: 6.70 to 7.60

CNC(=O)c1cc(Cl)cc(-n2nc(Br)c3cnc(N[C@@H]4CC[C@@](C)(C(=O)NC)C4)nc32)c1 [3-[3-bromo-6-[[(1R,3R)-3-methyl-3-(methylcarbamoyl)cyclopentyl]amino]pyrazolo[3,4-d]pyrimidin-1-yl]-5-chloro-N-methyl-benzamide]
pIC50 [1]: 6.70 to 7.60

CNC(=O)[C@]1(C)CC[C@@H](Nc2ncc3c(Br)nn(-c4cc(CO)cc(C(F)(F)F)c4)c3n2)C1 [(1R,3R)-3-[[3-bromo-1-[3-(hydroxy-methyl)-5-(trifluoromethyl)phenyl]pyrazolo[3,4-d]pyrimidin-6-yl]amino]-N,1-dimethyl-cyclopentanecarboxamide]
pIC50 [1]: 6.70 to 7.60

CNC(=O)C1(C#N)CC[C@@H](Nc2ncc3c(Br)nn(-c4cc(Cl)cc([C@H](C)N)c4)c3n2)C1 (stereo partly drawn) [(3R)-3-[[1-[3-[(1S)-1-aminoethyl]-5-chloro-phenyl]-3-bromo-pyrazolo[3,4-d]pyrimidin-6-yl]amino]-1-cyano-N-methyl-cyclo-pentanecarboxamide; 2,2,2-trifluoroacetic acid]
pIC50 [1]: 6.70 to 7.60

CNC(=O)C1(CCS(C)(=O)=O)CC[C@@H](Nc2ncc3c(Br)nn(-c4ccc(-c5nnc(C)s5)c(CCC#N)c4)c3n2)C1 (stereo partly shown)
pIC50 [1]: 6.70 to 7.60

CNC(=O)[C@@H]1CC[C@@H](Nc2ncc3c(I)nn(-c4ccc(-c5nnc(C)o5)cc4)c3n2)C1 [(1R,3R)-3-[[3-iodo-1-[4-(5-methyl-1,3,4-oxadiazol-2-yl)phenyl]pyrazolo[3,4-d]pyrimidin-6-yl]amino]-N-methyl-cyclopentanecarboxamide]
pIC50 [1]: 6.70 to 7.60

C[C@]1(C(=O)O)CC[C@@H](Nc2ncc3c(Br)nn(-c4cc(CCN)c5ncccc5c4)c3n2)C1 [(1S,3R)-3-[[1-[8-(2-aminoethyl)-6-quinolyl]-3-bromo-pyrazolo[3,4-d]pyrimidin-6-yl]amino]-1-methyl-cyclopentanecarboxylic acid]
pIC50 [1]: 6.70 to 7.60

CNC(=O)[C@]1(C)CC[C@@H](Nc2ncc3c(Br)nn(-c4cc(C(C)CO)c5ncccc5c4)c3n2)C1 (stereo partly drawn) [(1R,3R)-3-[[3-bromo-1-[8-(2-hydroxy-1-methyl-ethyl)-6-quinolyl]pyrazolo[3,4-d]pyrimidin-6-yl]amino]-N,1-dimethyl-cyclopentanecarboxamide]
pIC50 [1]: > 7.60

CNC(=O)[C@]1(C)CC[C@@H](Nc2ncc3c(Br)nn(-c4cc(Cl)cc(CCS(C)(=O)=O)c4)c3n2)C1
pIC50 [1]: 6.70 to 7.60

Cc1nnc(-c2ccc(-n3nc(Br)c4cnc(N[C@@H]5CC[C@@](C)(CO)C5)nc43)cc2CCC#N)s1 [3-[5-[3-bromo-6-[[(1R,3R)-3-(hydroxy-methyl)-3-methyl-cyclopentyl]amino]pyrazolo[3,4-d]pyrimidin-1-yl]-2-(5-methyl-1,3,4-thiadiazol-2-yl)phenyl] propanenitrile]
pIC50 [1]: 6.70 to 7.60

CNC(=O)[C@]1(C)CC[C@@H](Nc2ncc3c(Br)nn(-c4cc(CN5C(=O)CCC5=O)c5ncccc5c4)c3n2)C1 [(1R,3R)-3-[[3-bromo-1-[8-[(2,5-dioxo-pyrrolidin-1-yl)methyl]-6-quinolyl]pyrazolo[3,4-d]pyrimidin-6-yl]amino]-N,1-dimethyl-cyclopentanecarboxamide]
pIC50 [1]: 6.70 to 7.60

CNC(=O)[C@]1(C)CC[C@@H](Nc2ncc3c(Br)nn(-c4ccc(-c5nnc(C(C)(C)N)o5)c(C#N)c4)c3n2)C1 [(1R,3R)-3-[[1-[4-[5-(1-amino-1-methyl-ethyl)-1,3,4-oxadiazol-2-yl]-3-cyano-phenyl]-3-bromo-pyrazolo[3,4-d]pyrimidin-6-yl]amino]-N,1-dimethyl-cyclopentanecarboxamide]
pIC50 [1]: > 7.60

— US11046699B2, “Pyrazolo-pyrimidin-amino-cycloalkyl compounds and their therapeutic uses” (RAPT THERAPEUTICS, INC., priority 2018, dated 2021)
